Where two headings read alike, the source gives them in different places.
Tests used:
Burkitt's lymphoma cells = experiment: Lymphoma cell growth in vitro, FAC versus FC (FIG. 14); type: cell-based
Procedure: FIG. 14. […]. Burkitt's lymphoma cells were treated with either ferric ammonium citrate (FAC) or ferric citrate (FC). […]

[1] = tested on: Lewis Lung Carcinoma (LLC) MATRIGEL plugs, tumor blood vessels (CD31)
Procedure: FIG. 11. […] Tumor cells were injected into groups of mice subcutaneously in […] plugs. […] Histograms show mean levels of blood vessel length and branch points.
In another aspect, this disclosure describes methods of inhibiting angiogenesis in a subject. Generally, the methods involve co-administering cell-permeable iron and an anti-angiogenic chemotherapeutic agent. […] (FIG. 7).
One million LLC cells (in PBS) were mixed with […] (Corning, Inc., Corning, N.Y.) in a 3:1 ratio and injected subcutaneously into the dorsal flanks (bilateral sites) of 6-8 week old female C57BL/6 wild-type mice. Experimental […] plugs contained 200 μM FAC. Four days later, mice were treated with either saline (negative control) or 20 mg/kg FAC (in PBS) on alternate days for two weeks. After two weeks, mice were sacrificed, tumor plugs removed and photographed, a part of the […] plugs was snap-frozen, and another part of the […] plugs was fixed in 10% neutral formalin. Frozen tumor plugs (n=5 for saline and n=7 for FAC) were sectioned (15 μm), fixed with acetone at −20° C. for 10 minutes, rehydrated, and blocked in 1% BSA. Slides were then stained with PE-conjugated anti-mouse CD31 (1:100) overnight at 4° C., washed three times with PBS, stained with FITC-conjugated anti-alpha-SMA (1:500) for one hour at room temperature and counterstained with DAPI. Two sections per tumor plug were stained. Random areas (5-20) were imaged at 10× magnification using a Nikon AZ 100M Fluorescence Macro scope and at 20× magnification using a Leica DM5500 B microscope. CD31 vessel length and branching points (nodes) were quantified by morphometric analyses of fluorescent digital images using Reindeer Games plug-in functions for Adobe Photoshop, as previously described (Wild et al., 2000, Microvac Res 59(3):368-376). CD31 positive vessels co-staining with alpha- SMA were quantified similarly to quantitate mature vessels. Data in FIG. 11 show representative images of tumor sections stained with rat anti-mouse CD31-phycoerythrin conjugate.

[2] = tested on: A2780 ovarian cancer cells; experiment: Synergy of carboplatin and FAC, CCK-8 IC50 isobologram (Example 3, FIG. 3); conditions: read-out: IC50 (50% cell viability); agent alone, 48-hour treatment, CCK-8, A2780
Procedure: In these experiments, varying concentrations of the two reagents are added to tumor cells in an array format. Cytotoxicity was determined by CCK8 assay after 24 hours.
A2780 ovarian cancer cells were seeded into 96-well plates. […] Cell viability was determined by CCK-8 kit after 48-hour treatment with the drugs. […] IC50 values are shown as individual data points.

[3] = tested on: Burkitt's B-lymphoma cells; conditions: 14 days, 2 cells/well-50 cells/well
Procedure: FIG. 13. […] Burkitt's B-lymphoma cells were treated with FAC at different concentrations. Treated cells grown for 14 days at different cell density (2 cells/well-50 cells/well).

[4] = tested on: MDA-MB-231-luc triple negative breast cancer cell line; conditions: 100 μM FAC alone without radiation, five days
Procedure: FIG. 12. […] Triple negative breast cancer cell line, MDA-MB-231-luc, was exposed to different doses of ionizing radiation (X-Ray) in the presence and absence of 100 μM FAC. Sets of cultures seeded at the same cell density were kept as a control for radiation-induced cell death.
500,000 highly metastatic human breast cancer cells (MDA-MB-231-luc, Caliper Life Sciences, PerkinElmer Inc., Hopkinton, Mass.) were seeded into six-well plates in RPMI-1640 medium (3.0 ml) supplemented with 10% fetal bovine serum and antibiotics. After four hours to allow cell attachment, sets of cultures were treated with 100 μM FAC. Equal volume of complete medium was added to control cultures. One of the plates was kept aside without any radiation. Other sets of cultures were exposed to ionizing radiation (X-ray) of varying doses. After radiation, cells were cultures for five days. Live cells were stained with Hoechest 33342 dye and photographed under UV light.

HUVECs = conditions: FAC 200 μM for 24 hours, complete medium, eight hours recording
Procedure: HUVECs were plated in 60 mm plates and allowed to grow and attach for 24 hours. Subsequently, one plate was treated with FAC 200 μM for 24 hours. Control and treated cells were trypsinized and 50,000 live cells were plated in 8 well (8W10E) electric cell substrate impedance sensing plate (ECIS, Applied BioPhysics, Inc., Troy, N.Y.). Cell attachment and spreading was confirmed by measuring electrical impedance. After reaching stable values of impedance in ohms, a clear wound of 250 micrometer was generated by applying elevated electrical pulse to the defined electrode. Wounded area is clear of cells and confirmed by a decrease in impedance. Cell movement into the wounded areas was recorded for eight hours at 15 minute intervals. Cell migration into the wounded area increases impedance and was continually recorded over a period of eight hours (FIG. 10). Error bars represent standard deviation (SD).

[5] = tested on: MA148 ovarian cancer cells; experiment: Synergy of doxorubicin and FAC, CCK-8 viability, Compusyn CI/DRI (Example 5, FIG. 5, Tables 3-4); type: cell-based, Human
Procedure: FIG. 5. […] (Chou et al., 2006, Pharmacol Rev 58:621-628).
Subsequently, they were treated with different concentrations of Doxorubicin in the presence or absence of FAC 200 uM. […] Five different combinations of FAC and Doxorubicin were used in this study. […] Values below the dotted line indicate synergy.

[6] = tested on: human umbilical vein endothelial cells (HUVEC); conditions: 100 ng/ml VEGF-A
Procedure: Human umbilical vein endothelial cells (HUVECs; Neuromics, Edina, Minn.) and HUVECs immortalized with h-TERT (ATCC CRL-4053, ATCC, Manassas, Va.) were cultured in endothelial cell growth media EGM-2 (Lonza, Basel, Switzerland). Lewis Lung Carcinoma (LLC) cells (ATCC CRL-1642, ATCC, Manassas, Va.) were grown in RPMI 1640 medium supplemented with 10% FBS, 1% glutamine, 1% penicillin-streptomycin and 1% sodium pyruvate. Female C57BL/6 wild-type (WT) mice were used as recipients (bred at the University of Minnesota specific pathogen free environment animal facility). All animals were sex and aged matched (6-8 weeks). All experimental protocols were approved by the University of Minnesota Institutional Animal Care and Use Committee. VEGF-A165 was purchased from R & D Systems (Minneapolis, Minn.). GELTREX Low-growth factor basement membrane matrix (Thermo Fisher Scientific, Inc., Waltham Mass.) was used for in vitro tube formation assay.
HUVEC were plated in 0.2% gelatin coated 96-well plates and allowed to attach for 24 hours. Subsequently they were starved in EBM-2 with 2% serum overnight. […] Cell viability was determined by CCK-8 assay (Dojindo Molecular Technologies, Inc., Rockville, Md.). VEGF-A induced effect was calculated by subtracting negative control values from all experimental groups. Proliferation was then calculated as percentage of the positive control.

[7] = tested on: MA148 ovarian cancer cells
Procedure: CI, combination index. CI<1.0 indicates synergy. Compusyn program (ComboSyn, Inc., Paramus, N.J.) was used to calculate CI and generate isobologram.
In these experiments, varying concentrations of the two reagents are added to tumor cells in an array format. Cytotoxicity was determined by CCK8 assay after 24 hours. […] An antagonistic effect (competition) would result in hyperbolic (bell-shaped) curve above the dotted line (additive effect).
Cells were allowed to attach for 24 hours after which they were pretreated with FAC 200 μM for 24 hours. […] After 24 hours, CCK-8 (10 μl) was added to each well and one hour later, absorbance at 450 nm was measured. Viability was calculated as percentage of the cells grown in complete medium (FIG. 4). […] Isobologram was generated using Compusyn program (ComboSyn, Inc., Paramus, N.J.). Dotted line is the predicted additive effect between two compounds. Values below the dotted line indicate synergy.

[8] = 20 mg/kg FAC on alternate days for two weeks

## ferric ammonium citrate [FAC]
Burkitt's lymphoma cells
  inhibition of lymphoma cell growth: effective
  potency relative to ferric citrate at inhibiting lymphoma cell growth: more potent than ferric citrate (FC)
[1]; [8]
  total vessel length: inhibited
  vessel branches: inhibited
[1]; systemic injection of FAC, compared to mice receiving saline
  CD31 positive vessel density: significantly reduced
[2]
  IC50: 200 µM
[3]
  colony formation (clonogenic growth): completely inhibited
[4]
  cell viability: significant decrease in cell viability
HUVECs
  endothelial cell migration (electrical impedance, real time): inhibits
[5]; Fa 0.88386
  Dose FAC (FAC alone for this Fa): 2644.47
[5]; Fa 0.95196
  Dose FAC (FAC alone for this Fa): 6060.28
[6]; 50 μM FAC, 48 hours
  inhibition of VEGF-A-induced cell proliferation: complete inhibition
[6]; 200 μM FAC, 24 hours
  inhibition of VEGF-A-induced endothelial cell proliferation: completely inhibited
[7]; Fa 0.24288
  Dose FAC (FAC alone for this Fa): 121.297
[7]; Fa 0.24359
  Dose FAC (FAC alone for this Fa): 121.991
[7]; Fa 0.28253
  Dose FAC (FAC alone for this Fa): 164.074
[7]; Fa 0.29392
  Dose FAC (FAC alone for this Fa): 178.068
[7]; Fa 0.35541
  Dose FAC (FAC alone for this Fa): 269.444
[7]; Fa 0.36087
  Dose FAC (FAC alone for this Fa): 279.043
[7]; Fa 0.49929
  Dose FAC (FAC alone for this Fa): 645.092
[7]; Fa 0.61254
  Dose FAC (FAC alone for this Fa): 1272.12
[7]; Fa 0.66880
  Dose FAC (FAC alone for this Fa): 1824.65
[7]; Fa 0.87322
  Dose FAC (FAC alone for this Fa): 11126.4

## N.N.O=C([O-])C1(C(=O)[O-])CCC1.[Pt+2] [carboplatin, reference compound]
[2]
  IC50: 150 µM

## COc1cccc2c1C(=O)c1c(O)c3c(c(O)c1C2=O)C[C@@](O)(C(=O)CO)C[C@@H]3O[C@H]1C[C@H](N)[C@H](O)[C@H](C)O1 [DOX, Doxorubicin, reference compound]
[5]; Fa 0.88386
  Dose DOX (DOX alone for this Fa): 47050.0
[5]; Fa 0.95196
  Dose DOX (DOX alone for this Fa): 178095.

## ferric citrate [FC]
Burkitt's lymphoma cells
  inhibition of lymphoma cell growth: effective
